Where “and” joins values, the source holds several entries; their conditions need not be identical. Equal values may be shown once.
Biological target: D(2) dopamine receptor (Rattus norvegicus, UniProt P61169)
Sequence (P61169 whole entry): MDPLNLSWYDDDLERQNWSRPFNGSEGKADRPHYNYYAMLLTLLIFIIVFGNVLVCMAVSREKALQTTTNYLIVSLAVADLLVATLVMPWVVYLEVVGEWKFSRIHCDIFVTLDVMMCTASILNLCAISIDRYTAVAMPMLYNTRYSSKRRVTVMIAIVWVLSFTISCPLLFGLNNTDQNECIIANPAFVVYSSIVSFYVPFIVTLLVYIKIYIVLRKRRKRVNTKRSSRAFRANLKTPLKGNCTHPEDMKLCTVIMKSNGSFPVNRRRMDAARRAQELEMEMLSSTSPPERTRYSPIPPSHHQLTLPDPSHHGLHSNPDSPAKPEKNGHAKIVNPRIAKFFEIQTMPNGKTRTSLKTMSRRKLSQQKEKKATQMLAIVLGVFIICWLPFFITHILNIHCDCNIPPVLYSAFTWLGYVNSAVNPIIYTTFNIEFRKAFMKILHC

Row | SMILES | Ki
1 | NC1CCc2cc(O)c(O)cc2C1 (centres undefined) | 6.1 nM and 24 nM
2 | CC(C)C[C@H]1C(=O)N2CCC[C@H]2[C@]2(O)O[C@](NC(=O)[C@@H]3C=C4c5cccc6[nH]c(Br)c(c56)C[C@H]4N(C)C3)(C(C)C)C(=O)N12 [Bromocriptine+ (GTP+)] | 83 nM and 54 nM
3 | CN(C)CCCSc1ccccc1NC(=O)/C=C/c1ccccc1 [CINANSERIN] | > 10000 nM
4 | O=C(O)c1ccccc1C(=O)Nc1cccc2ccccc12 [NPA,(+)] | 4.8 nM

Reference: BindingDB's records for PubMed 1356154 (Dupont Pharmaceuticals, 1992)
